The values that follow come from ChEMBL document CHEMBL1201862, “PubChem BioAssay data set” (2004).

Molecules are shown by their SMILES.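 Briefly, cells in 96-well plates were exposed to five compound concentrations for 48 h, and endpoints were estimated by linear interpolation. At the GI50, growth is halved.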 Active and inactive are the calls of the source. Rule as the data show it: active = GI50 up to about 1.1 µM and inactive = higher.

Holding throughout (assay): NCI anticancer screen, dose series, 48 h
Assay [1] concerns K562.
The subject of assay [2] is HT-29.
The subject of assay [3] is Malme-3M.
The test system of assay [4] is SF-539.
Assay [5] concerns HCC 2998.
In assay [6] the test system is SNB-75.
The subject of assay [7] is IGROV-1.
For assay [8], the system named is SK-MEL-2.
In assay [9] the test system is A498.
Assay [10] concerns Hs-578T.
Assay [11] concerns MDA-MB-231.
For assay [12], the system named is ACHN.
The subject of assay [13] is OVCAR-4.
Assay [14] has as its system KM12.
In assay [15] the test system is COLO 205.
The subject of assay [16] is 786-0.
For assay [17], the system named is MOLT-4.
Assay [18] concerns OVCAR-8.
The test system of assay [19] is UACC-257.

With `CCC(C)(C)/C(CC(O)(C(F)(F)F)C(F)(F)F)=N\O`, the GI50 in assay [1], in assay [2], in assay [3], in assay [4], in assay [5] and in assay [6] was > 100 µM (inactive) each time. Also, the GI50 in [7], in [8], in assay [9], in assay [10], in assay [11] and in assay [12] was > 100 µM (inactive) each time. Moreover, the GI50 in [13], in [14], in assay [15], in assay [16] and in [17] was > 100 µM (inactive) in each case.

For `COc1cc2cc(C(=O)N3CC(CCl)c4c3cc([N+](C)(C)Cc3ccc([N+](=O)[O-])n3C)c3ccccc43)[nH]c2c(OC)c1OC` (stereo not given), the GI50 in assay [2] is 1.29 µM (inactive); in [3], 3.79 µM (inactive); in assay [4], 2.02 µM (inactive); in [5], 0.3 µM (active); in [6], 2.35 µM (inactive); in [18], 1.38 µM (inactive). Besides, the GI50 was 2.06 µM (inactive) in assay [19]; 1.58 µM (inactive) in [7]; 0.374 µM (active) in [8]; 0.153 µM (active) in assay [9]; 6.76 µM (inactive) in assay [10]; 2.42 µM (inactive) in [11]. Further, the GI50 in [12] was 0.381 µM (active); in assay [13], 1.88 µM (inactive); in assay [14] it was 2.14 µM (inactive); in assay [15] it was 0.989 µM (active); in [16], 1.33 µM (inactive); in assay [17], 1.93 µM (inactive).

As for `O/N=C(\C=N\O)c1ccc2c(c1)Sc1ccccc1O2`, the GI50 was 22.1 µM (inactive) in assay [1]; 21.4 µM (inactive) in assay [2]; 29.5 µM (inactive) in assay [3]; 26.4 µM (inactive) in assay [4]; 23.4 µM (inactive) in [5]; 16.1 µM (inactive) in [6]. Further, the GI50 is 22.8 µM (inactive) in [18]; 19.5 µM (inactive) in assay [19]; 15.6 µM (inactive) in assay [9]; 24.9 µM (inactive) in assay [10]; 15.7 µM (inactive) in assay [11]; 19.9 µM (inactive) in assay [12]. Besides, the GI50 is 25.1 µM (inactive) in assay [13]; 33 µM (inactive) in assay [14]; 21.4 µM (inactive) in assay [15]; 17.5 µM (inactive) in assay [16]; 5.43 µM (inactive) in assay [17].

As to `O=C1C(Cl)=C(NCCCN2CCOCC2)C(=O)c2c(O)ccc(O)c21`, the GI50 is 2.62 µM (inactive) in assay [1]; 2.75 µM (inactive) in assay [2]; 1.91 µM (inactive) in assay [3]; 1.68 µM (inactive) in assay [4]; 2.2 µM (inactive) in assay [5]; 2.38 µM (inactive) in assay [6]. Also, the GI50 in assay [18] was 3.99 µM (inactive); in assay [19], 2.35 µM (inactive); in assay [7], 1.9 µM (inactive); in [8], 0.228 µM (active); in assay [9], 10 µM (inactive); in assay [10], 1.27 µM (inactive). Besides, the GI50 was 3.01 µM (inactive) in assay [11]; 9.18 µM (inactive) in assay [12]; 1.85 µM (inactive) in [14]; 2.29 µM (inactive) in assay [16]; 1 µM (active) in assay [17].

With `CCC(=O)C(c1ccccc1)c1ccccn1` (stereo not given), the GI50 in assay [2], in assay [3], in [5], in assay [6], in [18] and in assay [19] was > 100 µM (inactive) throughout. Also, the GI50 in [7], in [8], in [9], in [10], in assay [11] and in assay [12] was > 100 µM (inactive) throughout. The GI50 in assay [13], in assay [14], in assay [15] and in assay [16] was > 100 µM (inactive) each time.

On to `Cn1ccc(C(=O)NCCN(CCNC(=O)c2ccn(C)c(=O)c2O)CCNC(=O)c2cccc(=O)n2O)c(O)c1=O`, for which the GI50 in assay [1], in assay [2], in assay [3], in [4], in assay [5] and in assay [6] was > 100 µM (inactive) each time. Moreover, the GI50 in assay [18] was > 100 µM (inactive); in assay [19], > 100 µM (inactive); in assay [7] it was 29.2 µM (inactive); in assay [8], > 100 µM (inactive); in assay [9], > 100 µM (inactive); in assay [10], > 100 µM (inactive). Further, the GI50 was > 100 µM (inactive) in assay [11]; > 100 µM (inactive) in assay [12]; > 100 µM (inactive) in [13]; 56.4 µM (inactive) in assay [14]; > 100 µM (inactive) in assay [15]; > 100 µM (inactive) in assay [16].

Turning to `COC(=O)C(COC(=O)/C=C/c1ccc(OC(C)=O)c(OC(C)=O)c1)OC(=O)/C=C/c1ccc(OC(C)=O)c(OC(C)=O)c1` (stereo not given), the GI50 in [1] was 3.48 µM (inactive); in assay [2] it was 6.9 µM (inactive); in [3] it was 15.5 µM (inactive); in assay [4], 10.8 µM (inactive); in assay [5] it was 17.5 µM (inactive); in [18], 11.8 µM (inactive). For the same molecule, the GI50 was 15.7 µM (inactive) in assay [19]; 4.94 µM (inactive) in assay [7]; 12.2 µM (inactive) in [8]; 16.5 µM (inactive) in assay [9]; 13.7 µM (inactive) in assay [10]; 6.7 µM (inactive) in assay [11]. The GI50 in assay [12] was 14.5 µM (inactive); in [13] it was 15.3 µM (inactive); in [14], 12 µM (inactive); in assay [15] it was 15.9 µM (inactive); in assay [16], 11.8 µM (inactive); in assay [17], 1.95 µM (inactive).

For the molecule `Cc1nc2c(O)cc3c4c(n(Cc5ccccc5)c3c2nc1C)C(=O)CCC4`, the GI50 was 93.5 µM (inactive) in assay [1]; > 100 µM (inactive) in [2]; 27.8 µM (inactive) in [3]; 17.5 µM (inactive) in assay [4]; > 100 µM (inactive) in assay [5]; 12.2 µM (inactive) in [18]. The GI50 in assay [19] is > 100 µM (inactive); in assay [8], 10.1 µM (inactive); in assay [9], 34 µM (inactive); in assay [10], 14.4 µM (inactive); in [11] it was > 100 µM (inactive); in [12], 25.2 µM (inactive). Besides, the GI50 in assay [13] was 13.9 µM (inactive); in [14] it was > 100 µM (inactive); in assay [15], 83 µM (inactive); in [16] it was 15.1 µM (inactive); in [17], > 100 µM (inactive).

`CCOC(=O)c1c2ccccc2n2c(=O)n(-c3ccccc3)nnc12`: the GI50 was 16.6 µM (inactive) in assay [1]; > 100 µM (inactive) in assay [3]; > 96.4 µM (inactive) in [4]; 47.1 µM (inactive) in assay [5]; 27.2 µM (inactive) in assay [6]; > 100 µM (inactive) in [18]. The GI50 in [19] was > 33.3 µM (inactive); in assay [7] it was 79.3 µM (inactive); in assay [8], > 25.8 µM (inactive); in [9], > 21.2 µM (inactive); in assay [10], > 100 µM (inactive); in assay [11], > 100 µM (inactive). Moreover, the GI50 in [12] is > 27 µM (inactive); in [13], > 71.8 µM (inactive); in assay [14] it was 61 µM (inactive); in assay [15], 40.7 µM (inactive); in assay [16], 62.4 µM (inactive).

As for `CCC1C(c2ccccc2O)c2cc3c(cc2OC1N1CCOCC1)OCO3` (stereo not given), the GI50 in assay [1] is 11.5 µM (inactive); in assay [2] it was 13.6 µM (inactive); in assay [3] it was 13 µM (inactive); in [4], 16.3 µM (inactive); in assay [5] it was 17.3 µM (inactive); in assay [6], 8.53 µM (inactive). Further, the GI50 in assay [18] was 20.8 µM (inactive); in assay [19], 16 µM (inactive); in assay [7], 15.8 µM (inactive); in assay [8] it was 15.5 µM (inactive); in [9] it was 14.3 µM (inactive); in [10], 15.9 µM (inactive). Moreover, the GI50 in assay [11] is 16.8 µM (inactive); in assay [12] it was 13.3 µM (inactive); in assay [14], 13 µM (inactive); in [15] it was 15.4 µM (inactive); in [16], 21.1 µM (inactive); in assay [17], 6.44 µM (inactive).

`NC(=O)NNC(=O)c1nc[nH]c1[N+](=O)[O-]`: the GI50 in [1], in assay [2], in assay [3], in assay [4], in [5] and in [6] was > 100 µM (inactive) each time. Further, the GI50 in assay [18], in assay [19], in assay [7], in assay [8], in assay [9] and in assay [10] was > 100 µM (inactive) each time. Moreover, the GI50 in assay [11], in [13], in assay [15], in assay [16] and in assay [17] was > 100 µM (inactive) in each case.
